Earlier results in US20120087859A1, “NANOCARRIER HAVING ENHANCED SKIN PERMEABILITY, CELLULAR UPTAKE AND TUMOUR DELIVERY PROPERTIES” (GWANGJU INSTITUTE OF SCIENCE AND TECHNOLOGY, priority 2010, published 2012).

Test system: NIH/3T3 fibroblasts
Settings: cultured NIH/3T3 fibroblasts in vitro

For `CC(C)(O)C(=O)c1ccc(OCCO)cc1` [Irgacure 2959, 2-hydroxy-1-[4-(2-hydroxyethoxy)phenyl]-2-methyl-1-propanone], the cytotoxicity is given as “almost non-cytotoxic”.
